Test systems include A498 renal; HT29 colon; RPMI-8226 leukemia; SN12C renal; SNB-19 CNS; ACHN renal; SW-620 colon; MOLT-4 leukemia; A549 NSCLC; SF-268 CNS; CAKI-1 renal.
What all share (test): growth of human tumour cells (NCI), 48 h

Each structure is given as a SMILES string.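 Tested at 5 concentrations; 48 h exposure; 96-well plates; endpoints linearly interpolated, else capped at highest concentration. TGI: total growth inhibition.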 Where a SMILES comes first, the peptide text is derived from it. [ ]: non-standard residue; d: D form. The star is where a group is joined. ξ: configuration not given here. NMeF = CN[C@@H](Cc1ccccc1)C(=O)O; ξNMeV = CNC(C(=O)O)C(C)C; Boc = CC(C)(C)OC(=O)*; OBn = c1ccc(CO*)cc1 A value given as a limit tells only on which side of the number the result lay.

As for `O=C1C2CCC(C2)C12CC1(c3ccccc3)C(=O)c3ccccc3N1O2` (centres undefined), the TGI in the assay on A498 renal, in the assay with HT29 colon, with RPMI-8226 leukemia, in the assay with SN12C renal, in the assay on SNB-19 CNS and with ACHN renal was more than 100 µM each time. The TGI in the assay with SW-620 colon, in the assay on MOLT-4 leukemia, with A549 NSCLC and with SF-268 CNS was more than 100 µM each time.

Take `COc1ccc([N-]/C(=N\n2c(=O)c(C)nn(C)c2=S)N(c2ccc(OC)cc2)c2nn3c(=O)c(C)n[n+](C)c3s2)cc1`: the TGI with A498 renal, in the assay with HT29 colon, in the assay with RPMI-8226 leukemia, in the assay with SN12C renal, in the assay with SNB-19 CNS and in the assay with ACHN renal was more than 100 µM throughout. Besides, the TGI in the assay with SW-620 colon, with MOLT-4 leukemia, in the assay with A549 NSCLC and with SF-268 CNS was more than 100 µM each time.

With `CC(C)C(C(=O)N1CCC[C@@H]1C(=O)OCc1ccccc1)N(C)C(=O)C(C(C)C)N(C)C(=O)[C@H](Cc1ccccc1)N(C)C(=O)[C@H](NC(=O)OC(C)(C)C)C(C)C` (some centres undefined) (Boc-[dV][NMeF][ξNMeV][ξNMeV][dP]-OBn), the TGI in the assay with A498 renal, in the assay on HT29 colon, in the assay with RPMI-8226 leukemia, in the assay with SN12C renal, with SNB-19 CNS and in the assay on ACHN renal was more than 100 µM throughout. Moreover, the TGI with SW-620 colon, in the assay on MOLT-4 leukemia, in the assay with A549 NSCLC and in the assay on SF-268 CNS was more than 100 µM in each case.

In the case of `CC(C)OP(=O)(OC(C)C)/C(=N/N)NNc1ccc([N+](=O)[O-])cc1`, the TGI in the assay with A498 renal, with RPMI-8226 leukemia, in the assay on SN12C renal, in the assay with SNB-19 CNS, in the assay on ACHN renal and with CAKI-1 renal was more than 100 µM each time. The TGI in the assay with SW-620 colon, with MOLT-4 leukemia, in the assay with A549 NSCLC and with SF-268 CNS was more than 100 µM throughout.

As to `CC(=O)OC1CC2(c3ccccc3)C(=O)c3ccccc3N2O1` (centres undefined), the TGI with A498 renal, in the assay with HT29 colon, with RPMI-8226 leukemia, in the assay with SN12C renal, in the assay with SNB-19 CNS and in the assay with ACHN renal was more than 100 µM in each case. Further, the TGI in the assay on SW-620 colon, in the assay on MOLT-4 leukemia, in the assay on A549 NSCLC and in the assay with SF-268 CNS was more than 100 µM throughout.

For the compound `CC12CC[C@H](O)C(C)(C)[C@H]1CC[C@](C)(O)C2COc1ccc2ccc(=O)oc2c1` (some centres undefined), the TGI in the assay with A498 renal, with HT29 colon, with RPMI-8226 leukemia, with SN12C renal, with SNB-19 CNS and in the assay with ACHN renal was more than 100 µM in each case. Also, the TGI with SW-620 colon, in the assay on MOLT-4 leukemia, with A549 NSCLC and with SF-268 CNS was more than 100 µM in each case.

As to `COc1ccc(C2ON(c3ccccn3)CC=C2C)cc1` (centres undefined), the TGI in the assay on HT29 colon, in the assay on RPMI-8226 leukemia, in the assay with SN12C renal, with SNB-19 CNS, in the assay with ACHN renal and with CAKI-1 renal was more than 100 µM each time. Besides, the TGI in the assay on SW-620 colon, in the assay with MOLT-4 leukemia, in the assay with A549 NSCLC and in the assay with SF-268 CNS was more than 100 µM throughout.

Take `CSc1ccc2c(cc1=O)C(NC(=O)c1ccc(OC(C)=O)cc1)CCc1cc(O)c(O)c(O)c1-2` (centres undefined): the TGI is more than 100 µM with A498 renal; 37.9 µM with HT29 colon; 31.6 µM in the assay with SN12C renal; more than 100 µM in the assay with SNB-19 CNS; more than 100 µM in the assay with ACHN renal; 29.5 µM in the assay with SW-620 colon. Moreover, the values for the TGI in the assay on MOLT-4 leukemia, in the assay on A549 NSCLC and in the assay with SF-268 CNS were 28.9 µM, more than 100 µM and more than 100 µM, respectively.

On to `COc1cc(C(C)c2cc3c(cc2OCCCCOc2cc4c(cc2C(C)c2cc(OC)c(OC)c(OC)c2)OCO4)OCO3)cc(OC)c1OC` (centres undefined), for which the TGI with HT29 colon, with RPMI-8226 leukemia, in the assay with SN12C renal, with SNB-19 CNS, in the assay with ACHN renal and in the assay on CAKI-1 renal was more than 100 µM in each case. Further, the TGI is 96 µM in the assay with SW-620 colon, more than 100 µM in the assay with MOLT-4 leukemia, more than 100 µM with A549 NSCLC and more than 100 µM with SF-268 CNS.

On to `O=C1c2nn(-c3ccccc3)nc2C(c2ccccc2)N1c1ccccc1` (centres undefined), for which the TGI in the assay with HT29 colon, in the assay on RPMI-8226 leukemia, in the assay on SN12C renal, with SNB-19 CNS, in the assay with ACHN renal and in the assay on CAKI-1 renal was more than 100 µM in each case. Further, the TGI in the assay with SW-620 colon, in the assay on MOLT-4 leukemia, in the assay on A549 NSCLC and in the assay on SF-268 CNS was more than 100 µM each time.
